# PMC2585982 (Toxicology and applied pharmacology, 2008)
# Experiments:
# [1] = system: P450s 2B9/10; experiment: Liver microsomal P450 2B activity; assay type: in vivo, mice; settings: mouse, in vivo
# [2] = system: P450; experiment: Liver microsomal P450 content after oral dosing of mice; assay type: in vivo; settings: C57BL/6 mice, 100 mg/kg p.o. 3 days, vs corn oil
# [3] = system: GST (cumene hydroperoxide); experiment: Liver GST activity, cumene hydroperoxide as substrate, after oral dosing of mice; assay type: in vivo; settings: female SENCAR mice, even at the highest doses, data not shown
# [4] = system: Cyp3a11 mRNA; experiment: Northern blot of liver RNA, Cyp3a11 mRNA in CAR; settings: isopimpinellin 150 mg/kg p.o. 24 h, TC 3 mg/kg i.p. 6 h
# [5] = biological target: SXR (Homo sapiens, UniProt O75469); experiment: SXR-DR3 reporter assay; assay type: cell-based
# Sequence of SXR (O75469 whole entry): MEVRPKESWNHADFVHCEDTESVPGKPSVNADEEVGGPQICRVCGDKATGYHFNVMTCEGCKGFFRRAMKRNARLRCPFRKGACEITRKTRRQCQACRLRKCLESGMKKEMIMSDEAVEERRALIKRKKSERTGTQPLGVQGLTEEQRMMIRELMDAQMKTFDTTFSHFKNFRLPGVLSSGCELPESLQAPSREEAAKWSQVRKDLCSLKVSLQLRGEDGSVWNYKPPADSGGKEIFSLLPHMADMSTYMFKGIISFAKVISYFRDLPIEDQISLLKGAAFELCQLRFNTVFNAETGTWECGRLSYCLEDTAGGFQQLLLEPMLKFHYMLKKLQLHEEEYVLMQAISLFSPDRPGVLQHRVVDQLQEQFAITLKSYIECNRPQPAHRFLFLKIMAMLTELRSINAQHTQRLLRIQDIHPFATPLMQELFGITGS
# Sequence of SXR (P19793 whole entry partner): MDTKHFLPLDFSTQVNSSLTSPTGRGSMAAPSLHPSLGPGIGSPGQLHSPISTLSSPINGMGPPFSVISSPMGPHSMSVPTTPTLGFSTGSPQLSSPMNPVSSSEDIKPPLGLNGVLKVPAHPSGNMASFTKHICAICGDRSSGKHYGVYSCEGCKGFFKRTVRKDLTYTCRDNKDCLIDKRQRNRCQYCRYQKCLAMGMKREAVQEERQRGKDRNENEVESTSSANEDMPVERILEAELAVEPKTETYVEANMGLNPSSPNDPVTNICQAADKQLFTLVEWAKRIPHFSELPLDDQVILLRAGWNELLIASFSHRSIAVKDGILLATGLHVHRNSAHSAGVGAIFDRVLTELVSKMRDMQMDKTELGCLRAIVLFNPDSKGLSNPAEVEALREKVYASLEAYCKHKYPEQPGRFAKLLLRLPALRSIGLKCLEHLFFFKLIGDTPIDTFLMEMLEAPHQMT
# [6] = system: P450 1A1/1A2; settings: mouse, in vivo
# [7] = system: GST (DCNB, GST μ); experiment: Liver cytosolic GST activity, DCNB as substrate, after oral dosing of mice; assay type: in vivo; settings: C57BL/6 mice, 100 mg/kg p.o. 3 days, vs corn oil
# [8] = system: GSTp mRNA; experiment: Northern blot of liver RNA, GSTp mRNA in CAR; assay type: in vivo, mice; settings: isopimpinellin 150 mg/kg p.o. 24 h; TC 3 mg/kg i.p. 6 h
structure (smiles),measurement,setting,value
"COc1c2ccoc2c(OC)c2oc(=O)ccc12 [isopimpinellin, 5,8-dimethoxypsoralen]","Increase in P450 2B9/10 enzyme activity, dose-response study",[1],300 fold
same,"P450 2B activity, liver microsomes, dose-response study",[1],significant increases
same,"Increase in P450 2B activity (pentoxyresorufin), liver microsomes","[1]; po, 100 mg/kg",~ 5 fold
same,"P450 content, liver microsomes",[2],increased
same,GST activity using cumene hydroperoxide as a substrate,[3],no differences
same,"Induction of hepatic Cyp3a11 mRNA, CAR(−/−) mice",[4],still observed
same,"Induction of hepatic Cyp3a11 mRNA, CAR(+/+) mice",[4]; male and female,~ 4 fold
same,EC50,[5],39.8 µM
same,"Max (concentration to reach maximal effect), SXR-DR3","[5]; CV-1 cells, full length SXR","100,000 nM"
same,"P450 1A1/1A2 protein levels, dose-response study",[6],elevated
same,P450 1A1/1A2 protein expression (western blot densitometry),"[6]; po, 100 mg/kg",increased
same,"GST activity using DCNB as a substrate, liver cytosol",[7],highest increase
same,"Increase in hepatic GSTp mRNA, CAR(−/−) mice",[8],≥ 5 fold
same,"Increase in hepatic GSTp mRNA, female CAR(+/+) mice",[8],~ 8 fold
